{"source": "paper PMC11500415", "about": "“Chemical inhibition of stomatal differentiation by perturbation of the master-regulatory bHLH heterodimer via an ACT-Like domain” (Nature Communications, 2024)", "molecular_target": "T1, MUTE bHLH domain (Arabidopsis thaliana, UniProt Q9M8K6)", "T1 construct": "MUTEΔC (1-114); made in house; host or cells: E. coli BL21", "T1 sequence (Q9M8K6 1-114)": "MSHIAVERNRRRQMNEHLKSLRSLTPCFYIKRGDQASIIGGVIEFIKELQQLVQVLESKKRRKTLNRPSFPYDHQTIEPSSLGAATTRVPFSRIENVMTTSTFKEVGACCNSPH", "assay": "BLI direct binding", "design": "species or system A. thaliana", "details": "for Response: BLI, GST-MUTE_bHLH on Anti-GST sensor, unit assumed", "data": [{"smiles": "O=C1C(c2ccccc2)=NC(NS(=O)(=O)c2ccccc2)(c2ccccc2)N1S(=O)(=O)c1ccccc1", "note": "(stereo not shown) [Stomidazolone]", "values": [{"measurement": "binding to MUTE bHLH versus ACTL domain (in words)", "setting": "BLI (Fig. 6h)", "result": "specifically binds to the ACTL domain"}, {"measurement": "Response", "setting": "Stomid Conc. (nM) 6.25", "result": 0.0607, "unit": "nm"}, {"measurement": "Response", "setting": "Stomid Conc. (nM) 12.5", "result": 0.0612, "unit": "nm"}, {"measurement": "Response", "setting": "Stomid Conc. (nM) 25", "result": 0.0712, "unit": "nm"}, {"measurement": "Response", "setting": "Stomid Conc. (nM) 50", "result": 0.0833, "unit": "nm"}, {"measurement": "Response", "setting": "Stomid Conc. (nM) 100", "result": 0.0921, "unit": "nm"}, {"measurement": "Response", "setting": "Stomid Conc. (nM) 200", "result": 0.106, "unit": "nm"}]}]}
